Assay: xn = mol fraction of the nth substance listed, in the solute-free solvent

Cl.N=C(N)NC(=N)N1CCOCC1 + O + CC(C)O
solubility (g/100 g solution)
Details	x2 = 0.1	x2 = 0.2	x2 = 0.3	x2 = 0.4	x2 = 0.5	x2 = 0.6	x2 = 0.7	x2 = 0.8	x2 = 0.9
283.15 K	0.441	0.892	2.04	4.24	8.16	13.2	19.8	25.8	35
293.15 K	0.499	1.2	2.75	5.73	10.6	15.4	23.9	30.8	37.5
303.15 K	0.607	1.51	3.56	7.55	13.8	20.6	29.6	36.8	44.3
313.15 K	0.831	1.73	4.8	9.86	17.4	23.7	34.9	42.9	50.8
323.15 K	1.11	2.09	5.83	12.6	21.2	30	39.1	45.7	55.9

Cc1nc2n(c(=O)c1CCN1CCC(c3noc4cc(F)ccc34)CC1)CCCC2 + CCO + O
solubility (g/100 g solution)
Details	278.15 K	283.15 K	288.15 K	293.15 K	298.15 K	303.15 K	308.15 K	313.15 K
x2 = 0.1436	0.173	0.214	0.262	0.329	0.397	0.487	0.592	0.73
x2 = 0.2069	0.628	0.744	0.919	1.1	1.4	1.68	2.06	2.58
x2 = 0.2812	1.72	2.03	2.47	2.94	3.58	4.32	5.34	6.64
x2 = 0.3627	3.31	3.98	4.66	5.53	6.67	8.06	9.77	12
x2 = 0.4768	4.74	5.58	6.59	7.76	9.19	11	13.2	15.9
x2 = 0.6101	4.86	5.65	6.62	7.77	9.18	10.8	12.9	15.2
x2 = 0.779	3.01	3.56	4.18	4.97	5.91	7.06	8.5	10.1

CCOC(=O)OC1=C(c2cc(C)ccc2C)C(=O)NC12CCC(OC)CC2 (configuration not stated) + CC(C)O + O
solubility (g/100 g solution)
Details	278.15 K	283.15 K	288.15 K	293.15 K	298.15 K	303.15 K	308.15 K	313.15 K	318.15 K
x2 = 0.2	0.638	0.86	1.19	1.61	2.18	2.85	3.73	4.8	6.15
x2 = 0.4	2.55	2.99	3.88	5	6.36	8.23	10.4	13.1	16.5
x2 = 0.6	3.11	3.92	5.04	6.01	7.67	9.71	12.3	15.4	19.1
x2 = 0.8	2.53	3.07	3.85	5.03	6.44	8.1	10.2	13.2	16.5

Nc1nc2ccc(OC(F)(F)F)cc2s1 + CC(C)=O + O
solubility (g/100 g solution)
Details	278.15 K	283.15 K	288.15 K	293.15 K	298.15 K	303.15 K	308.15 K	313.15 K	318.15 K	323.15 K
x2 = 0.1174	2.79	2.99	3.26	3.49	3.89	4.23	4.48	4.79	4.98	5.23
x2 = 0.1714	6.6	6.96	7.42	7.95	8.29	8.75	9.09	9.43	9.77	10.1
x2 = 0.2367	25.5	25.9	26.5	27	27.6	28	28.5	29.1	29.8	30.1
x2 = 0.3175	40.2	40.6	40.9	41.1	41.5	41.8	42	42.3	42.7	43
x2 = 0.4203	55.1	56.3	57	57.7	59	60.2	61.1	62.2	62.9	63.6
x2 = 0.5537	70.6	71.7	72.7	73.6	74.5	75.3	76.2	76.7	77.2	77.8
x2 = 0.7361	68	69	69.9	71	71.8	72.8	73.6	74.2	75	75.7

Source: the CheMixHub drug solubility set
